Assay results published in patent US20080267905A1, “Methods and Compositions Using Selective Cytokine Inhibitory Drugs for Treatment and Management of Cancers and Other Diseases” (CELGENE CORPORATION, priority 2004, published 2008).

Key:
TNF-α production = assay: Inhibition of TNF-α production following LPS-stimulation of human PBMC and human whole blood (in vitro cytokine studies); assay type: cell-based; conditions: compared with thalidomide
Description: In a specific embodiment, the pharmacological properties of 3-(3,4-dimethoxy-phenyl)-3-(1-oxo-1,3-dihydro-isoindol-2-yl)-propionamide are characterized in in vitro studies. Studies examine the effects of the compound on the production of various cytokines. Inhibition of TNF-α production following LPS-stimulation of human PBMC and human whole blood by the compound is investigated in vitro. […] The pharmacological effects of 3-(3,4-dimethoxy-phenyl)-3-(1-oxo-1,3-dihydro-isoindol-2-yl)-propionamide may derive from its action as an inhibitor of the generation of inflammatory cytokines.

[1] = Cardiovascular and respiratory function in anesthetized dogs; assay type: in vivo; conditions: anesthetized Beagle dogs
Description: The effects of 3-(3,4-dimethoxy-phenyl)-3-(1-oxo-1,3-dihydro-isoindol-2-yl)-propionamide on cardiovascular and respiratory function are investigated in anesthetized dogs. Two groups of Beagle dogs (2/sex/group) are used. One group receives three doses of vehicle only and the other receives three ascending doses of the compound (200, 400, and 800 mg/kg). In all cases, doses of the compound or vehicle are successively administered via infusion through the jugular vein separated by intervals of at least 30 minutes.

## COc1ccc(C(CC(N)=O)N2Cc3ccccc3C2=O)cc1OC (stereo not drawn) [3-(3,4-dimethoxy-phenyl)-3-(1-oxo-1,3-dihydro-isoindol-2-yl)-propionamide]
TNF-α production
  pharmacological activity profile, potency relative to thalidomide: five to fifty times more potent than thalidomide
[1]; all doses (200, 400, and 800 mg/kg), infusion through the jugular vein, compared to vehicle control group
  cardiovascular and respiratory changes: minimal
[1]; common to both the control and treated groups
  deviations in femoral blood flow, respiratory parameters, and Qtc interval: not considered treatment-related
[1]; following administration of the low dose, only statistically significant difference vs vehicle
  arterial blood pressure: small increase
[1]; higher doses
  arterial blood pressure effect at higher doses: not seen at higher doses
[1]; low dose
  duration of the arterial blood pressure effect: approximately 15 minutes
